The values that follow come from publication PMC9694926, “Novel Uracil-Based Inhibitors of Acetylcholinesterase with Potency for Treating Memory Impairment in an Animal Model of Alzheimer’s Disease” (Molecules, 2022).

Molecules are shown by their SMILES. Where a name gives a salt, the structure may show the parent alone. Read-outs that look alike come from different tables or passages of the source.

Data set [1] is described as follows: Acute toxicity (LD50), intraperitoneal injection. Particulars: CD1, mouse, in vivo, ip; mice, i.p. injection. Type of data set: in vivo. How it is done: (§1) All experiments involving animals were performed in accordance with the guidelines set out by the European Union Council Directive 2010/63/EU; the experimental protocols were approved by the Animal Care and Use Committee of the Federal Research Center “Kazan Scientific Center of the Russian Academy of Sciences”. Toxicological experiments were performed using intraperitoneal injection of the various compounds in CD1 mice weighing 20–25 g. Mice were maintained on a 12 h light/dark cycle (light from 7:00 a.m. to 7:00 p.m.) at 20−22 °C and 60−70% relative humidity. Five different doses (determined during preliminary tests) were used with six animals per dose. Animals were observed 14 days after injection, and symptoms of intoxication were recorded. […] LD50 was determined by the method of Weiss. Stock solutions of compounds were prepared in ethanol or water. Compounds were administered intraperitoneally in sterile physiological saline. The concentration of ethanol in physiological saline was 5% vol.

Data set [2] addresses T1, hAChE (Homo sapiens, UniProt P22303).
T1 construct: purchased Sigma-Aldrich
Briefly: biochemical. The data set is classed as biochemical. Conditions: for AChE Selectivity: (IC50 BChE)/(IC50 AChE); for IC50: human AChE, acetylthiocholine 1 mM, mean of three independent measurements. As to the method: (§2) The inhibitory potency of compounds against hAChE and hBChE was studied using Ellman’s method. Acetylthiocholine iodide (ATC), butyrylthiocholine iodide (BTC), recombinant hAChE, hBChE from blood plasma, and 5,5′-dithio-bis-(2-nitrobenzoic) acid (DTNB) were purchased from Sigma-Aldrich (Sigma-Aldrich, St. Louis, MO, USA). Stock solutions of compounds (0.01 M) were prepared using ethanol or water. In the case of compounds soluble in ethanol, the final concentration of ethanol in the cuvette was 0.1% vol. […] The enzyme-catalyzed reaction of hydrolysis was carried out in 0.1 M phosphate buffer at pH 8.0 containing 0.25 units of hAChE or hBChE and 1 mM ATC or BTC as substrates. The tested compounds were pre-incubated with the enzyme for 5 min at 25 °C prior to the addition of the substrate and the commencement of hydrolysis kinetics recording. Experiments were performed in triplicate. […] The sample without substrate was used as a blank. The sample without inhibitor was used as a control (in a solution of 0.1% vol. ethanol in the case of compounds soluble in ethanol). Percentage of AChE/BChE inhibition was determined by comparison of rates of reaction of test samples relative to the control sample. The percentage of inhibition as a function of compound concentration was plotted using OriginPro 8.5 software (OriginLab Corporation, Northampton, MA, USA).

The target in data set [3] is T2, hBChE (Homo sapiens, UniProt P06276).
T2 construct: hBChE from blood plasma; purchased Sigma-Aldrich; host or cells: human blood plasma
T2 sequence (P06276 29-602): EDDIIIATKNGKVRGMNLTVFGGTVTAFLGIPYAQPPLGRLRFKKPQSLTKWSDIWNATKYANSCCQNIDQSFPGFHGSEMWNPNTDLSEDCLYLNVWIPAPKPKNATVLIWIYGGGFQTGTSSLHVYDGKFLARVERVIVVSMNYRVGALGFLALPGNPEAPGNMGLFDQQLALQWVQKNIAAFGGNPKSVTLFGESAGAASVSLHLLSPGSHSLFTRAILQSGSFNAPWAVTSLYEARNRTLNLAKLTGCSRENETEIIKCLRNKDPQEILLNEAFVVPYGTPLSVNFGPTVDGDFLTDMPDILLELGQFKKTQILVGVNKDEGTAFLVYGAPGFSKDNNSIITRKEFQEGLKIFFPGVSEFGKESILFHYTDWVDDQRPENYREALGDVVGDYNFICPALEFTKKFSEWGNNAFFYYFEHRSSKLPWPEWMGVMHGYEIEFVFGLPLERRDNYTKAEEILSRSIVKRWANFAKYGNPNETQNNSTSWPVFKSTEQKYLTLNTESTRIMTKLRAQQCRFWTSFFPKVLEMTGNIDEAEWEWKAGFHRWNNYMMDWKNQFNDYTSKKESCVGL
Briefly: biochemical. Conditions: butyrylthiocholine 1 mM, mean of three independent measurements. How it is done: as §2

In data set [4] the target is T2, hBChE. Conditions: cited from earlier work.
The test system of data set [5] is CD1 mice. Particulars: i.p. injection, cited from earlier work.
Data set [6] concerns the target T1, hAChE. Particulars: cited from earlier work; for IC50: human AChE.
Data set [7] concerns CD1 mice. As to the kind of experiment: Acute toxicity (LD50), intraperitoneal injection. Conditions: i.p. injection. Type of data set: in vivo. As to the method: as §1
Data set [8] deals with scopolamine-induced amnesia in mice. As to the kind of experiment: T-maze spatial memory test in scopolamine-induced amnesia model. The data set is classed as in vivo, CD1 mice. Conditions: scopolamine 2 mg/kg i.p.; 1 mg/kg p.o. daily. How it is done: During the first set of in vivo experiments, the ability of compound 2c to reverse the scopolamine-induced amnesia in mice was studied by means of behavioral testing in a T-maze. The percentages of correct choices and mice reaching the criterion of learning were evaluated along with the dynamic of reaching the criterion of learning. Amnesia was caused by intraperitoneal administration of scopolamine (2 mg/kg) 40 min prior to testing. […]. The control group of mice was treated with saline. The behavior of mice was observed within 18 days (Figure 6A).
Scopolamine, representing a muscarinic acetylcholine receptor antagonist, produces a transient receptor blockade and cognitive deficits, which can be considered as a model of AD [28]. CD1 mice were randomly divided into 5 groups (n = 8–10): control group of mice treated with saline; mice injected with a water solution of scopolamine (2 mg/kg, i.p.) at 40 min before testing; […]. Drugs were administered over 18 days.
A reward alternation task was used to assess spatial memory performance in T-maze (OpenScience, Moscow, Russia) as previously described. Briefly, prior to commencing T-maze testing, mice were placed on a food-deprivation schedule over 3 days. […] The percentages of correct choices and mice reaching the criterion of learning were evaluated along with the dynamic of reaching the criterion of learning.

The next data set concerns APP/PS1 mice. Conditions: 1 mg/kg p.o. daily.

T1 sequence (P22303 32-614): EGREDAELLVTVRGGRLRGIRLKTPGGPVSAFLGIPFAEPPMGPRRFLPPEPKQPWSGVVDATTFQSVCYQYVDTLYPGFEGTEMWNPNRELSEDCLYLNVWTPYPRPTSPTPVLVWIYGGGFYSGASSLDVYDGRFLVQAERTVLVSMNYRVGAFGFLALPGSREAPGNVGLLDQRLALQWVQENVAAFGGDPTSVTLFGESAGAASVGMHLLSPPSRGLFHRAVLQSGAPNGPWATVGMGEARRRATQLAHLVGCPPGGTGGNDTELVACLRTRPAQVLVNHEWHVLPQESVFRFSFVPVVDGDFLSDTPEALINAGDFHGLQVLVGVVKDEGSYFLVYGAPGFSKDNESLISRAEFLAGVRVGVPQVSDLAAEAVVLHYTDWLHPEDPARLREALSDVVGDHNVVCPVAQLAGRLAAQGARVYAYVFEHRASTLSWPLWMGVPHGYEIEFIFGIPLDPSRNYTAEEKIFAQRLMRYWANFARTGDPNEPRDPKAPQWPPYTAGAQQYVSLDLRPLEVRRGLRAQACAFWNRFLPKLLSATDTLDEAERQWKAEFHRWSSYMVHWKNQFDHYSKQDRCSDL
Text for APP/PS1 mice: Wild-type and APP/PS1 saline treated mice were employed as negative and positive controls, respectively. The behavior of mice in the T-maze was observed within 18 days (Figure 7A).
Mice were assigned to four groups (n = 8–10). […] APP/PS1 mice and their wild-type non-transgenic littermates that received saline were used as positive and negative controls.
A reward alternation task was used to assess spatial memory performance in T-maze (OpenScience, Moscow, Russia) as previously described [32, 33]. Briefly, prior to commencing T-maze testing, mice were placed on a food-deprivation schedule over 3 days. On the fourth day, mice were placed in the start arm of the T-maze and made it possible to move freely. Over the next 14 days of testing, mice were given 6 pairs of training trials. In the first trial of each pair (forced trial), one of the goal arm guillotine doors was closed and the mouse was constrained to selecting the opposite arm. The mouse was returned to the start box 15–20 s after consuming the reward (diluted sweetened condensed milk). In the second (free choice) trial, both goal arm doors were opened, the arm opposite the one selected in the forced trial was baited. […] The percentages of correct choices and mice reaching the criterion of learning were evaluated along with the dynamic of reaching the criterion of learning.

Consider `CCN(CCCCCCn1c(C)cc(=O)n(CCCCCCN(CC)Cc2cccc(C(=O)OC)c2)c1=O)Cc1cccc(C(=O)OC)c1` [2d, 1,3-Bis[6-(meta-methoxycarbonylbenzylethylamino)hexyl]-6-methyluracil], for which the LD50 at 14 days in data set [1] worked out at 47.5 mg/kg. The “AChE Selectivity” value at hAChE [2] amounted to 285. Also, the IC50 on hAChE [2] amounted to 0.0047 ± 0.00017 µM; against hBChE [3], 1.34 ± 0.33 µM.

Consider `CCN(CCCCCn1c(C)cc(=O)n(CCCCCN(CC)Cc2ccccc2C#N)c1=O)Cc1ccccc1C#N` [1c], for which the half-maximal inhibitory concentration (IC50) is 100 µM on hBChE [4] (ref [14]) and 0.0073 ± 0.0006 µM at hAChE [6] (ref [14]). In the data set on CD1 mice [5] (ref [14]), the LD50 is 138 mg/kg.

In the case of `CCN(CCCCCn1c(C)cc(=O)n(CCCCCN(CC)Cc2ccccc2[N+](=O)[O-])c1=O)Cc1ccccc1[N+](=O)[O-]` [1a], the figures for the IC50 on hBChE [4] (ref [12]) and at hAChE [6] (ref [12]) were 35 µM and 0.0035 ± 0.0003 µM, respectively. Moreover, in the data set with CD1 mice [5] (ref [12]), the LD50 is recorded as 51 mg/kg. For the same compound, the “AChE Selectivity” value at hAChE [6] ((IC50 BChE)/(IC50 AChE), ref [12]) was 10,000.

In [1], `CCN(CCCCn1c(C)cc(=O)n(CCCCN(CC)Cc2cccc(C(=O)OC)c2)c1=O)Cc1cccc(C(=O)OC)c1` [2b, 1,3-Bis[4-(meta-methoxycarbonylbenzylethylamino)butyl]-6-methyluracil] gave an LD50 at 14 days of 120 mg/kg. Also, on hAChE [2], the “AChE Selectivity” value is 722 and the IC50 came to 0.027 ± 0.003 µM. Further, 19.5 µM corresponded to half-maximal inhibition against hBChE [3] (IC50).

In the case of `CCN(CCCCCCn1c(C)cc(=O)n(CCCCCCN(CC)Cc2ccc(C(=O)OC)cc2)c1=O)Cc1ccc(C(=O)OC)cc1` [3c, 1,3-Bis[6-(para-methoxycarbonylbenzylethylamino)hexyl]-6-methyluracil], in data set [1], the 50% lethal dose (LD50) at 14 days amounted to 87 mg/kg. Also, the “AChE Selectivity” value at hAChE [2] is 2218. Moreover, the “selectivity against AChE lower compared to compound 2c” value on hAChE [2] (AChE vs BChE) was “more than 15 times”. Also, the IC50 came out at 0.027 ± 0.007 µM against hAChE [2] and 59.9 µM against hBChE [3].

On to `CCN(CCCCCn1c(C)cc(=O)n(CCCCCN(CC)Cc2ccc(C(=O)OC)cc2)c1=O)Cc1ccc(C(=O)OC)cc1` [3b, 1,3-Bis[5-(para-methoxycarbonylbenzylethylamino)pentyl]-6-methyluracil], for which the LD50 at 14 days in data set [1] was found to be 188 mg/kg. In addition, the “AChE Selectivity” value at hAChE [2] is listed as 355.5. In addition, the figures for the IC50 at hAChE [2] and at hBChE [3] were 0.768 ± 0.08 µM and 273 µM, respectively.

Turning to `CCN(CCCCCn1c(C)cc(=O)n(CCCCCN(CC)Cc2cccc(C(=O)OC)c2)c1=O)Cc1cccc(C(=O)OC)c1` [compound 9], the LD50 in the data set with CD1 mice [7] is 96 mg/kg. Also, the solubility in water result in “Solubility in water” is on record as “water-soluble”.

Turning to `CCN(CCCCCn1c(C)cc(=O)n(CCCCCN(CC)Cc2ccccc2C(F)(F)F)c1=O)Cc1ccccc1C(F)(F)F` [1b], the results for the IC50 at hBChE [4] (ref [12]) and on hAChE [6] (ref [12]) were 20 µM and 0.0056 ± 0.0007 µM, respectively. In the data set with CD1 mice [5] (ref [12]), the LD50 is on record as 49 mg/kg.

`CCN(CCCCCn1c(C)cc(=O)n(CCCCCN(CC)Cc2cccc(C(=O)[O-])c2)c1=O)Cc1cccc(C(=O)[O-])c1.[Na+].[Na+]` [2e, 1,3-Bis[5-((meta-methylbenzoate)ethylamino)pentyl]-6-methyluracil disodium salt] had an LD50 at 14 days in data set [1] of 170 mg/kg. On hAChE [2], the “AChE Selectivity” value was 1.6 × 10^6 and 0.013 ± 0.001 µM corresponded to half-maximal inhibition (IC50). The same compound came in with an IC50 on hBChE [3] of about 21000 µM.

On to `CCN(CCCn1c(C)cc(=O)n(CCCN(CC)Cc2cccc(C(=O)OC)c2)c1=O)Cc1cccc(C(=O)OC)c1` [2a, 1,3-Bis[3-(meta-methoxycarbonylbenzylethylamino)propyl]-6-methyluracil], for which the LD50 at 14 days in data set [1] was determined as 170 mg/kg. In addition, on hAChE [2], the “AChE Selectivity” value is listed as 0.08 and the IC50 was 210 µM. Moreover, at hBChE [3], the IC50 was 16 µM.

Consider `COc1cc2c(cc1OC)C(=O)C(CC1CCN(Cc3ccccc3)CC1)C2` (centres unmarked) [Donepezil, donepezil hydrochloride], for which, in [8], the “percentage of correct choices in T-maze” value is listed as 66.78 ± 2.62% and the “percentage of mice reaching the criterion of learning by day 14” value was determined as 80%. Further, in the data set on APP/PS1 mice, the “percentage of correct choices in T-maze” value was 67.46 ± 2.35% and the “percentage of mice reaching the criterion of learning” value was 50%.

In data set [1], `CCN(CCCCCn1c(=O)c2ccccc2n(CCCCCN(CC)Cc2cccc(C(=O)OC)c2)c1=O)Cc1cccc(C(=O)OC)c1` [4b] gave an LD50 at 14 days of 93 mg/kg. In addition, on hAChE [2], the “AChE Selectivity” value was found to be 8.2 and inhibition was half-maximal at 0.29 ± 0.042 µM (IC50). Besides, at hBChE [3], the IC50 turned out to be 2.38 ± 0.49 µM.

The compound `CCN(CCCCn1c(C)cc(=O)n(CCCCN(CC)Cc2ccc(C(=O)OC)cc2)c1=O)Cc1ccc(C(=O)OC)cc1` [3a, 1,3-Bis[4-(para-methoxycarbonylbenzylethylamino)butyl]-6-methyluracil] had an LD50 at 14 days in data set [1] of 51 mg/kg. Further, on hAChE [2], the “AChE Selectivity” value worked out at 39 and half-maximal inhibition (IC50) was put at 3.3 ± 0.58 µM. The compound also registered an IC50 against hBChE [3] of 128 µM.

Turning to `CCN(CCCCn1c(=O)c2ccccc2n(CCCCN(CC)Cc2cccc(C(=O)OC)c2)c1=O)Cc1cccc(C(=O)OC)c1` [4a, 1,3-Bis[4-(meta-methoxycarbonylbenzylethylamino)butyl]-quinazoline-2,4-dione], the LD50 at 14 days in data set [1] turned out to be 120 mg/kg. Also, at hAChE [2], the “AChE Selectivity” value is reported as 7 and the midpoint of inhibition, the IC50, lay at 0.46 ± 0.095 µM. The compound also registered an IC50 on hBChE [3] of 3.16 ± 0.39 µM.

On to `CCN(CCCCCn1c(C)cc(=O)n(CCCCCN(CC)Cc2ccc(C(=O)[O-])cc2)c1=O)Cc1ccc(C(=O)[O-])cc1.[Na+].[Na+]` [3d, 1,3-Bis[5-((para-methylbenzoate)ethylamino)pentyl]-6-methyluracil disodium salt], for which the median lethal dose (LD50) at 14 days in data set [1] turned out to be 168 mg/kg. Further, the IC50 on hAChE [2] is 0.0046 ± 0.0004 µM; at hBChE [3], over 100000 µM.
